Test system: rabbit skeletal myofibrils (approximately 90% fast fibers)
Test: Activation of fast skeletal myofibrils (PUMA coupled-enzyme ATPase assay, AC1.4)
Assay type: biochemical
Conditions: concentration at which the compound increased enzymatic activity by 40%, calcium at pCa25

Compound	Mean AC1.4 (Table 2)	Mean AC1.4 (Table 3)	also measured
CC(C)(CNc1nc(-c2ccc(O)cc2Cl)ns1)c1ccc(F)cc1 [3-chloro-4-(5-{[2-(4-fluorophenyl)-2-methylpropyl]amino}(1,2,4-thiadiazol-3-yl))phenol]	A (A=<1 uM)		
CC(C)(CNc1nc(CCCNC(=O)CN)ns1)c1ccc(F)cc1 [2-amino-N-[3-(5-{[2-(4-fluorophenyl)-2-methylpropyl]amino}(1,2,4-thiadiazol-3-yl))propyl]acetamide]	B (B=1-10 uM)		
Fc1ccc(Br)cc1-c1nnc(NC2(c3ncccc3F)CCC2)[nH]1 [5-(5-bromo-2-fluorophenyl)-N-(1-(3-fluoropyridin-2-yl)cyclobutyl)-4H-1,2,4-triazol-3-amine]			Mean AC1.4 (Table 5): D (D=>20 uM)
NC(=O)c1cccc(-c2nsc(NCC(=O)C3CCCCN3)n2)c1 (stereo not drawn) [3-{5-[(2-oxo-2-piperidylethyl)amino]-1,2,4-thiadiazol-3-yl}benzamide]	D (D=>20 uM)		
COc1cccnc1C1(CNc2nc3ccc(C#N)cc3s2)CCC1 [2-((1-(3-methoxypyridin-2-yl)cyclobutyl)methylamino)benzo[d] thiazole-6-carbonitrile]			Mean AC1.4 (Table 4): D (D=>20 uM)
CC(C)(CNc1nnc(-c2ccc3[nH]nc(N)c3c2)s1)c1ccc(F)cc1 [5-(3-amino-1H-indazol-5-yl)-N-(2-(4-fluorophenyl)-2-methylpropyl)-1,3,4-thiadiazol-2-amine]		A (A=<1 uM)	
CC(C)(CNc1nc(-c2cccc(C(N)=O)c2)ns1)c1ccc(F)cn1 [3-(5-{[2-(5-fluoro(2-pyridyl))-2-methylpropyl]amino}-1,2,4-thiadiazol-3-yl)benzamide]	B (B=1-10 uM)		
CN1CCN(C(=O)CNc2nc(-c3cccc(C(N)=O)c3)ns2)CC1 [3-(5-{[2-(4-methylpiperazinyl)-2-oxoethyl]amino}-1,2,4-thiadiazol-3-yl)benzamide]	D (D=>20 uM)		
COc1cccnc1C1(CNc2nc3ccc(C(N)=O)cc3s2)CCC1 [2-((1-(3-methoxypyridin-2-yl)cyclobutyl)methylamino)benzo[d] thiazole-6-carboxamide]			Mean AC1.4 (Table 4): B (B=1-10 uM)
N#Cc1ccc(F)c(-c2nnc(NCC3(c4ncccc4F)CCC3)s2)c1 [4-fluoro-3-(5-((1-(3-fluoropyridin-2-yl)cyclobutyl)methylamino)-1,3,4-thiadiazol-2-yl)benzonitrile]		B (B=1-10 uM)	
NS(=O)(=O)c1ccc(CCNc2nc(Cc3ccc(F)cc3)ns2)cc1 [4-[2-({3-[(4-fluorophenyl)methyl]-1,2,4-thiadiazol-5-yl}amino)ethyl]benzenesulfonamide]	D (D=>20 uM)		
NC(=O)c1ccccc1-c1nnc(NCC2(c3ncccc3F)CCC2)s1 [2-(5-((1-(3-fluoropyridin-2-yl)cyclobutyl)methylamino)-1,3,4-thiadiazol-2-yl)benzamide]		D (D=>20 uM)	
Cn1nc(-c2cc(Br)ccc2F)nc1NC1(c2ncccc2F)CCC1 [5-(5-bromo-2-fluorophenyl)-N-(1-(3-fluoropyridin-2-yl)cyclobutyl)-2-methyl-2H-1,2,4-triazol-3-amine]			Mean AC1.4 (Table 5): D (D=>20 uM)
Oc1cccc(Cc2nsc(NCCc3ccc(Cl)cc3)n2)c1 [3-[(5-{[2-(4-chlorophenyl)ethyl]amino}-1,2,4-thiadiazol-3-yl)methyl]phenol]	B (B=1-10 uM)		
NC(=O)c1ccc(-c2nnc(NC[C@]3(c4ncccc4F)C[C@H](F)C3)s2)s1 [5-(5-((3-fluoro-1-(3-fluoropyridin-2-yl)cyclobutyl)methylamino)-1,3,4-thiadiazol-2-yl)thiophene-2-carboxamide]		B (B=1-10 uM)	
CC(C)(CNc1nc2ccc(C#N)cc2s1)c1ccc(F)cc1 [2-(2-(4-fluorophenyl)-2-methylpropylamino)benzo[d] thiazole-6-carbonitrile]			Mean AC1.4 (Table 4): B (B=1-10 uM)

Further lines, with some results ahead:

Mean AC1.4 (Table 2)	Mean AC1.4 (Table 3)	Compound	also measured
	B (B=1-10 uM)	COC(=O)c1ccc(F)c(-c2nnc(NC[C@]3(c4ncccc4F)C[C@H](F)C3)s2)c1 [methyl 4-fluoro-3-(5-((3-fluoro-1-(3-fluoropyridin-2-yl)cyclobutyl)methylamino)-1,3,4-thiadiazol-2-yl)benzoate]	
	A (A=<1 uM)	Fc1ccccc1-c1nnc(NC[C@]2(c3ncccc3F)C[C@H](F)C2)s1 [N-((3-fluoro-1-(3-fluoropyridin-2-yl)cyclobutyl)methyl)-5-(2-fluorophenyl)-1,3,4-thiadiazol-2-amine]	
B (B=1-10 uM)		COc1cccc(Cc2nsc(NCCc3ccc(F)c(F)c3)n2)c1 [[2-(3,4-difluorophenyl)ethyl]{3-[(3-methoxyphenyl)methyl](1,2,4-thiadiazol-5-yl)}amine]	
D (D=>20 uM)		COc1cccc(Cc2nsc(NCCc3cccc(C(F)(F)F)c3)n2)c1 [{3-[(3-methoxyphenyl)methyl](1,2,4-thiadiazol-5-yl)}{2-[3-(trifluoromethyl)phenyl]ethyl}amine]	
B (B=1-10 uM)		CC(C)(CNc1nc(-c2cncc(C#N)c2)ns1)c1ccc(F)cc1 [5-(5-{[2-(4-fluorophenyl)-2-methylpropyl]amino}-1,2,4-thiadiazol-3-yl)pyridine-3-carbonitrile]	
	B (B=1-10 uM)	Cc1ccsc1-c1nnc(NC[C@]2(c3ncccc3F)C[C@H](F)C2)s1 [N-(((trans)-3-fluoro-1-(3-fluoropyridin-2-yl)cyclobutyl)methyl)-5-(3-methylthiophen-2-yl)-1,3,4-thiadiazol-2-amine]	
B (B=1-10 uM)		CC(C)(O)/C=C/c1nsc(NCC(C)(C)c2ccc(F)cc2)n1 [(3E)-4-(5-{[2-(4-fluorophenyl)-2-methylpropyl]amino}(1,2,4-thiadiazol-3-yl))-2-methylbut-3-en-2-ol]	
	D (D=>20 uM)	Cn1nccc1-c1nnc(NC[C@]2(c3ncccc3F)C[C@H](F)C2)s1 [N-((3-fluoro-1-(3-fluoropyridin-2-yl)cyclobutyl)methyl)-5-(1-methyl-1H-pyrazol-5-yl)-1,3,4-thiadiazol-2-amine]	
D (D=>20 uM)		COc1cccc(Cc2nsc(Nc3ccc(Cl)cc3)n2)c1 [(4-chlorophenyl){3-[(3-methoxyphenyl)methyl](1,2,4-thiadiazol-5-yl)}amine]	
B (B=1-10 uM)		Fc1ccc(CCNc2nc(Cc3ccc(F)cc3)ns2)cc1 [[2-(4-fluorophenyl)ethyl]{3-[(4-fluorophenyl)methyl](1,2,4-thiadiazol-5-yl)}amine]	
	B (B=1-10 uM)	CSc1ncc(C)c(-c2nnc(NC[C@]3(c4ncccc4F)C[C@H](F)C3)s2)n1 [N-((3-fluoro-1-(3-fluoropyridin-2-yl)cyclobutyl)methyl)-5-(5-methyl-2-(methylthio)pyrimidin-4-yl)-1,3,4-thiadiazol-2-amine]	
	A (A=<1 uM)	Cc1ccc(Br)cc1-c1nnc(NC[C@]2(c3ncccc3F)C[C@H](F)C2)s1 [5-(5-bromo-2-methylphenyl)-N-(((trans)-3-fluoro-1-(3-fluoropyridin-2-yl)cyclobutyl)methyl)-1,3,4-thiadiazol-2-amine]	
D (D=>20 uM)		Fc1cccnc1C1(CNc2nsc(-c3ccccc3)n2)CCC1 [N-((1-(3-fluoropyridin-2-yl)cyclobutyl)methyl)-5-phenyl-1,2,4-thiadiazol-3-amine]	
	A (A=<1 uM)	Fc1ccc(Br)cc1-c1nnc(NC[C@]2(c3ncccc3F)C[C@@H](F)C2)s1 [5-(5-bromo-2-fluorophenyl)-N-(((cis)-3-fluoro-1-(3-fluoropyridin-2-yl)cyclobutyl)methyl)-1,3,4-thiadiazol-2-amine]	

Reference: patent publication US9278962B2 (Cytokinetics, Inc., priority 2011, dated 2016)
